Assay results: patent publication US20040014140A1, “Methods for identifying allosteric sites” (priority 2002, published 2004)

Experiments:
[1] = system: mutant PTP-1B where Asn-193 is mutated to alanine, Phe-196 is mutated to arginine, and Phe-280 is mutated to cysteine; assay: Inhibition of allosterically disabled mutant PTP-1B; type: biochemical, human; conditions: N193A, F196R, F280C mutant; allosteric mechanism disabled
Text: The importance of allosteric forming residues, Asn-193, Phe-196, and Phe-280 has been confirmed in part using mutagenesis experiments.
PTP-1B[321; N193A; F196R; F280C] was generated by joining an NdeI-PstI fragment from PTP-IB[321; N193A; F196R], corresponding to residues 1-215, with a PstI-EcoRI fragment from PTP-1B[321; F280C], corresponding to residues 216-321.
PTP-1B[298; N193A; F196R; F280C] was generated by PCR using PTP-1B[321; N193A; F196R; F280C] as a template. T7 vector primer was used as forward primer and truncation at residue 298 was generated using the primer 5′-[…] (SEQ ID. NO. 22).

[2] = system: caspase-9; assay: Tethering experiments with caspase-9; parameters: species or system human; conditions: binding to the small subunit, cysteine corresponding to Ile-265 in caspase-3
Experimental: This example describes one embodiment of a tethering experiment using caspase-3 or cysteine mutants thereof. […] Reactions were allowed to proceed to equilibrium (≧1 hour) before being analyzed by mass spectrometry. The reaction mixture was loaded onto a Finnegan LCQ2 or LCQ3 LCMS, with each run taking 2-5 minutes, depending upon the separation procedure. After deconvolution, the large and/or small subunits were identified based upon their known molecular weight.

| Compound | inhibition of mutant PTP-1B [1] | selection in tethering experiments [2] |
| --- | --- | --- |
| CCc1oc2cc(S(=O)(=O)Nc3ccc(S(N)(=O)=O)cc3)ccc2c1C(=O)c1cc(Br)c(O)c(Br)c1 [compound 15] | no longer capable of inhibiting the enzyme | – |
| O=C(O)c1ccc(Oc2ccccc2)cc1 [compound 8] | – | selected |
